Experimental data published in patent publication US20140296479A1, “D-APTIDE AND RETRO-INVERSO APTIDE WITH MAINTAINED TARGET AFFINITY AND IMPROVED STABILITY” (GWANGJU INSTITUTE OF SCIENCE AND TECHNOLOGY, priority 2011, published 2014).
Where a SMILES comes first, the peptide text is derived from it. Where no end group is shown, it is not given here. [ ]: non-standard residue; d: D form.

Key:
[1] = biological target: T1, fibronectin EDB (Homo sapiens, UniProt P02751); experiment: BIAcore X (SPR) affinity for fibronectin EDB; format: binding; conditions: biotin-EDB on SA chip; for Kd / koff (dissociation rate constant): PBS pH 7.4; for kon: PBS pH 7.4, read-out: ka
T1 construct: Biotin-EDB of 2000 RU was immobilized on streptavidin SA chip
Experimental: (§1) To investigate whether the activity is maintained where Aptamer-Like Peptides specifically binding to fibronectin EDB, i.e., L-Aptide1EDB are converted into D- and Retro inverso (RI)-form, their affinity to a target was measured. Firstly, 3 peptides, L-Aptide1EDB ([…], all L-amino acids, SEQ ID NO:21), D-Aptide1EDB ([…], all D-amino acids, SEQ ID NO:21) and RI-Aptide1EDB ([…], all D-amino acids), were synthesized by Anigen Inc. (Korea). Their affinity for a target was determined using BIAcore X (Biacore AB, Uppsala, Sweden). Biotin-EDB of 2000 RU was immobilized on streptavidin SA chip (Biacore). A PBS (pH 7.4) was used as a running buffer, a flow rate was 30 μl/min, and the affinity was determined with BIAevaluation software (Biacore AB, Uppsala, Sweden) after measuring kinetics of various concentrations.

[2] = system: trypsin; experiment: Degradation of Aptides by protease, SDS-PAGE; format: in vitro ADME; conditions: 10 unit trypsin, 100 μg peptide, FIG. 3
Experimental: (§2) Degradation levels of the L-Aptide1EDB and D-Aptide1EDB were measured using proteases, α-chymotrypsin and trypsin (Sigma). The proteases of 10 unit were added to 100 μg peptides, followed by the reaction for 30, 60, 120 and 720 min, and the reaction was blocked by adding SDS sample buffer (Invitrogen). Subsequently, results for the peptide degradation were obtained from SDS-PAGE.

[3] = biological target: T2, α-chymotrypsin (Bos taurus, UniProt P00766); experiment: Degradation of Aptides by protease, SDS-PAGE; format: in vitro ADME; conditions: 10 unit α-chymotrypsin, 100 μg peptide, FIG. 3
T2 construct: purchased Sigma
Experimental: as §2

[4] = biological target: T3, VEGF121 (Homo sapiens, UniProt P15692); experiment: BIAcore X (SPR) affinity for VEGF; format: binding; conditions: VEGF121 on CM5 chip; for kd: PBS pH 7.4; for kon: PBS pH 7.4, read-out: ka
T3 sequence (P15692 27-147 isoform P15692-9): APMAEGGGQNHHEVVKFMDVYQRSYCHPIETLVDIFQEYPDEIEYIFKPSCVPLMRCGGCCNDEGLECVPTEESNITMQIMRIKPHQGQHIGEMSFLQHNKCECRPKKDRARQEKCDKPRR
Experimental: To investigate whether the activity is maintained where Aptamer-Like Peptides specifically binding to VEGF (Vascular endothelial growth factor), i.e., L-Aptide1VEGF are converted into D- and Retro inverso (RI)-form, their affinity to a target was measured. Firstly, 3 peptides, L-Aptide1VEGF ([…], all L-amino acids, SEQ ID NO:23), D-Aptide1VEGF ([…], all D-amino acids, SEQ ID NO:23) and RI-Aptide1VEGF ([…], all D-amino acids), were synthesized by Anigen Inc. (Korea). Their affinity for a target was determined using BIAcore X (Biacore AB, Uppsala, Sweden). VEGF121 of 3000 RU was immobilized on CM5 chip (Biacore). A PBS (pH 7.4) was used as a running buffer, a flow rate was 30 μl/min, and the affinity was determined with BIAevaluation software (Biacore AB, Uppsala, Sweden) after measuring kinetics of various concentrations.

[5] = biological target: T4, VEGF (Homo sapiens, UniProt P15692); experiment: Inhibition of VEGF activity (HUVEC proliferation assay); format: cell-based; conditions: VEGF165, 72 hours
T4 construct: purchased R&D Systems
T4 sequence (P15692 27-191 isoform P15692-4): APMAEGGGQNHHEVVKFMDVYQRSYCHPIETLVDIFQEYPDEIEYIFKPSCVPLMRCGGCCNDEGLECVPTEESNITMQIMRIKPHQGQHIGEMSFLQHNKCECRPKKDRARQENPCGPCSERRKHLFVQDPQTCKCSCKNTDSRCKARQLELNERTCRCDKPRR
Experimental: HUVECs (Human Umbilical Vein Endothelial Cells, ATCC) were starved in M199 medium (Gibco) supplemented with 1% FBS, and then they were attached to a 96-well plate at 5000 cell/well. After 12 hours, the cells were treated with medium containing both various concentrations of L-Aptide1VEGF and D-Aptide1VEGF, and VEGF165 (R&D Systems). After 72 hours, the growth inhibition rate of HUVECs by the L-AptideVEGF and D-AptideVEGF was determined using EZ-cytox cell viability assay kit (Daeil Labservice, Korea).

[6] = biological target: T5, fibronectin EDB (UniProt P02751 1266-1356, limits assumed, biotin (site not stated)); experiment: SPR, BIAcore X; biotin-EDB on SA chip, peptide as analyte
T5 construct: domain: EDB; Biotin-EDB, 2000 RU, immobilised on a streptavidin SA chip; also called Biotin-EDB; fibronectin extra domain B (ED-B)
Experimental: as §1, with “(Biacore).” for “(Biacore). A PBS (pH 7.4) was used as a running buffer, a flow rate was 30 μl/min, and the affinity was determined with BIAevaluation software (Biacore AB, Uppsala, Sweden) after measuring kinetics of various concentrations.”

T5 sequence (P02751 1266-1356 limits assumed): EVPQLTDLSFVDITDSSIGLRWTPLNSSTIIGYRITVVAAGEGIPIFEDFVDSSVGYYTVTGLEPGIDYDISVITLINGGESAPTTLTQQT

With `CC[C@@H](C)[C@@H](NC(=O)CNC(=O)[C@@H](CCCCN)NC(=O)[C@@H](Cc1c[nH]c2ccccc12)NC(=O)[C@H](NC(=O)[C@@H](Cc1c[nH]c2ccccc12)NC(=O)[C@@H](CCCCN)NC(=O)CNC(=O)[C@@H](CC(N)=O)NC(=O)[C@@H](CCC(=O)O)NC(=O)[C@@H](Cc1c[nH]c2ccccc12)NC(=O)[C@H](NC(=O)[C@@H](Cc1c[nH]c2ccccc12)NC(=O)[C@@H](CO)NC(=O)CNC(=O)[C@H](NC(=O)[C@@H](C)NC(=O)[C@@H](CO)NC(=O)[C@@H](CO)NC(=O)[C@@H](CS)NC(=O)[C@H](N)Cc1c[nH]cn1)C(C)C)[C@H](C)O)[C@H](C)O)C(=O)N[C@@H](C(=O)N[C@H](CCCNC(=N)N)C(=O)N[C@H](CC(C)C)C(=O)N[C@H](CCC(=O)O)C(=O)N[C@H](CCC(N)=O)C(=O)O)[C@H](C)CC` [D-Aptide1EDB] (H-[dH][dC][dS][dS][dA][dV]G[dS][dW][dT][dW][dE][dN]G[dK][dW][dT][dW][dK]G[dI][dI][dR][dL][dE][dQ]-OH; N-terminus and C-terminus assumed) the Kd [1] was 58 nM, the “koff (dissociation rate constant)” value [1] was 0.0009 s⁻¹ and the kon [1] was 15000 M⁻¹ s⁻¹. The “time to degradation by protease” value [2] was over 360 min and the “time to degradation by protease” value [3] was over 360 min.

In the case of `C[C@H](O)[C@@H](NC(=O)[C@@H](Cc1c[nH]c2ccccc12)NC(=O)[C@@H](CCCCN)NC(=O)CNC(=O)[C@@H](CC(N)=O)NC(=O)[C@@H](CCC(=O)O)NC(=O)[C@@H](Cc1c[nH]c2ccccc12)NC(=O)[C@H](NC(=O)[C@@H](Cc1c[nH]c2ccccc12)NC(=O)[C@@H](CO)NC(=O)CNC(=O)[C@@H](CCC(N)=O)NC(=O)[C@@H](Cc1ccccc1)NC(=O)[C@@H](Cc1ccccc1)NC(=O)[C@@H](CC(N)=O)NC(=O)[C@@H](C)NC(=O)[C@H](N)Cc1c[nH]cn1)[C@H](C)O)C(=O)N[C@H](Cc1c[nH]c2ccccc12)C(=O)N[C@H](CCCCN)C(=O)NCC(=O)N[C@H](Cc1c[nH]c2ccccc12)C(=O)N[C@H](CCCCN)C(=O)N[C@H](Cc1ccc(O)cc1)C(=O)N[C@H](CC(N)=O)C(=O)N[C@H](CCC(N)=O)C(=O)N[C@H](CO)C(=O)O` [D-Aptide1VEGF] (H-[dH][dA][dN][dF][dF][dQ]G[dS][dW][dT][dW][dE][dN]G[dK][dW][dT][dW][dK]G[dW][dK][dY][dN][dQ][dS]-OH; N-terminus and C-terminus assumed), the kd [4] is reported as 0.0066 s⁻¹, the Kd ([4]; PBS pH 7.4, read-out: Kd) is reported as 50 nM and the kon [4] is reported as 130000 M⁻¹ s⁻¹. The “inhibition of VEGF activity” value ([5]; at 10 μM, D-form versus L-form) was “more inhibited VEGF activity than L-form” and the “inhibition of VEGF activity” value ([5]; at 20 μM) was “completely inhibited VEGF activity”.

`CC[C@H](C)[C@H](NC(=O)CNC(=O)[C@H](CCCCN)NC(=O)[C@H](Cc1c[nH]c2ccccc12)NC(=O)[C@@H](NC(=O)[C@H](Cc1c[nH]c2ccccc12)NC(=O)[C@H](CCCCN)NC(=O)CNC(=O)[C@H](CC(N)=O)NC(=O)[C@H](CCC(=O)O)NC(=O)[C@H](Cc1c[nH]c2ccccc12)NC(=O)[C@@H](NC(=O)[C@H](Cc1c[nH]c2ccccc12)NC(=O)[C@H](CO)NC(=O)CNC(=O)[C@@H](NC(=O)[C@H](C)NC(=O)[C@H](CO)NC(=O)[C@H](CO)NC(=O)[C@H](CS)NC(=O)[C@@H](N)Cc1c[nH]cn1)C(C)C)[C@@H](C)O)[C@@H](C)O)C(=O)N[C@H](C(=O)N[C@@H](CCCNC(=N)N)C(=O)N[C@@H](CC(C)C)C(=O)N[C@@H](CCC(=O)O)C(=O)N[C@@H](CCC(N)=O)C(=O)O)[C@@H](C)CC` [L-Aptide1EDB] (H-HCSSAVGSWTWENGKWTWKGIIRLEQ-OH; N-terminus and C-terminus assumed) was tested, and the Kd [1] was 65 nM, the “koff (dissociation rate constant)” value [1] was 0.00095 s⁻¹ and the kon [1] was 10000 M⁻¹ s⁻¹. For the same molecule, the “time to degradation by protease” value [2] was at most 30 min and the “time to degradation by protease” value [3] was at most 30 min.

In the case of `C[C@H](NC(=O)[C@@H](N)Cc1c[nH]cn1)C(=O)N[C@@H](CC(N)=O)C(=O)N[C@@H](Cc1ccccc1)C(=O)N[C@@H](Cc1ccccc1)C(=O)N[C@@H](CCC(N)=O)C(=O)NCC(=O)N[C@@H](CO)C(=O)N[C@@H](Cc1c[nH]c2ccccc12)C(=O)N[C@H](C(=O)N[C@@H](Cc1c[nH]c2ccccc12)C(=O)N[C@@H](CCC(=O)O)C(=O)N[C@@H](CC(N)=O)C(=O)NCC(=O)N[C@@H](CCCCN)C(=O)N[C@@H](Cc1c[nH]c2ccccc12)C(=O)N[C@H](C(=O)N[C@@H](Cc1c[nH]c2ccccc12)C(=O)N[C@@H](CCCCN)C(=O)NCC(=O)N[C@@H](Cc1c[nH]c2ccccc12)C(=O)N[C@@H](CCCCN)C(=O)N[C@@H](Cc1ccc(O)cc1)C(=O)N[C@@H](CC(N)=O)C(=O)N[C@@H](CCC(N)=O)C(=O)N[C@@H](CO)C(=O)O)[C@@H](C)O)[C@@H](C)O` [L-Aptide1VEGF] (H-HANFFQGSWTWENGKWTWKGWKYNQS-OH; N-terminus and C-terminus assumed), the kd [4] is reported as 0.01 s⁻¹, the kon [4] is reported as 350000 M⁻¹ s⁻¹ and the “inhibition of VEGF activity” value ([5]; at 20 μM) is reported as “completely inhibited VEGF activity”.

[dH][dC][dS][dS][dA][dV]G[dS][dW][dT][dW][dE][dN]G[dK][dW][dT][dW][dK]G[dI][dI][dR][dL][dE][dQ] (designed binder) [D-Aptide1EDB] showed a koff [6] of 0.0009 s⁻¹.

Molecule [dQ][dE][dL][dR][dI][dI]G[dK][dW][dT][dW][dK]G[dN][dE][dW][dT][dW][dS]G[dV][dA][dS][dS][dC][dH] (designed binder) [RI-Aptide1EDB] has a koff [6] of 0.0011 s⁻¹.

B1: L-Aptide1EDB (designed binder)
peptide: HCSSAVGSWTWENGKWTWKGIIRLEQ
notes: Synthetic 26-mer, all L-amino acids; also called Aptide1EDB (L-form)
Molecule B1 has a koff [6] of 0.00095 s⁻¹.
